Where a name gives a salt, the structure may show the parent alone.
Key:
[1] = test system: reserpine induced hypothermia; assay: antagonism of reserpine (5 mg/kg i.p.) induced hypothermia (antireserpine/antidepressant activity) in mice; format: in vivo; conditions: for Antireserpine Activity in Mice, Relative Potency: reserpine 5 mg/kg i.p., Amitriptyline = 1; for antidepressant activity (in words): reserpine hypothermia
Method: (§1) The compounds were administered intraperitoneally and activities of the compounds were compared with those of Amitriptyline.

[2] = in vivo; conditions: mouse, ip
[3] = test system: mice; conditions: i.p.
[4] = test system: tremorine induced tremor; assay: central anticholinergic effect, tremorine induced tremor in mice; conditions: Mus musculus, ip, read-out: Antitremorine Effect ED50
Method: as §1

[5] = test system: electroshock induced tonic extensor; assay: anticonvulsant activity, antagonism of electroshock induced tonic extensor in mice; format: in vivo; conditions: Mus musculus, ip, dose preventing 50% of response, read-out: Anti-Convulsant Activity ED50
Method: as §1

[6] = test system: tremorine induced tremor; conditions: mouse, in vivo, ip
Method: as §1

[7] = test system: neurological deficit as measured by traction test; conditions: mouse, in vivo, ip
Method: as §1

[8] = test system: neurological deficit as measured by traction test; assay: CNS depressant activity, neurological deficit by traction test (muscle relaxant action) in mice; conditions: Mus musculus, ip, read-out: Muscle Relaxant Action ED50
Method: as §1

[9] = test system: spontaneous motor activity; assay: CNS depressant activity, spontaneous motor activity measured by ANIMEX apparatus in mice; conditions: Mus musculus, ip, read-out: Spontaneous Motor Activity Depression ED50
Method: as §1

Row | SMILES | Antireserpine Activity in Mice, Relative Potency [1] | LD50 [2] | antidepressant activity (in words) [1] | other results
1 | CN(C)CCCOc1ccccc1Oc1ccccc1 [2-(3-dimethylaminopropoxy)diphenyl ether hydrochloride, reference compound] | 0.14 | – | – | –
2 | CNCCCOc1ccccc1Oc1ccccc1 [2-(3-methylaminopropoxy)diphenyl ether hydrochloride, reference compound] | 0.28 | – | – | –
3 | NCCCCOc1ccccc1Oc1ccccc1 [2-(4-aminobutoxy)diphenyl ether hydrochloride] | 0.28 | – | – | –
4 | CN(C)CCCCOc1ccccc1Oc1ccccc1 [2-(4-dimethylaminobutoxy)diphenyl ether hydrochloride] | 0.58 | 92 mg/kg | best activity of all compounds of the present invention tested | –
5 | CNCCCCOc1ccccc1Oc1ccccc1 [2-(4-methylaminobutoxy)diphenyl ether hydrochloride] | 1.10 | 100 mg/kg | best activity of all compounds of the present invention tested | toxicity (in words) [3]: low toxicity; ED50 [4]: 30 mg/kg; antireserpine activity compared with Amitriptyline (in words) ([1]; versus Amitriptyline): comparable to that of Amitriptyline; ED50 [5]: 32 mg/kg; anticholinergic action (in words) [6]: weak; CNS depressant action (in words) [7]: weak; ED50 [8]: 60 mg/kg; ED50 [9]: 60 mg/kg
6 | c1ccc(Oc2ccccc2OCCCCN2CCOCC2)cc1 [2-(4-morpholinobutoxy)diphenyl ether hydrochloride, reference compound] | 0.21 | – | – | –
7 | CN(C)CCCCCOc1ccccc1Oc1ccccc1 [2-(5-dimethylaminopentyloxy)diphenyl ether hydrochloride] | 0.24 | – | – | –
8 | CNCCCCCOc1ccccc1Oc1ccccc1 [2-(5-methylaminopentyloxy)diphenyl ether hydrochloride] | 0.57 | 85 mg/kg | best activity of all compounds of the present invention tested | –
9 | CN(C)CCC=C1c2ccccc2CCc2ccccc21 [Amitriptyline, reference compound] | – | – | – | LD50 ([3]; Litchfield-Wilcoxon method): 65 mg/kg i.p.
